The text below walks through data of patent publication EP0840781B1, “METHODS AND DEVICES FOR THE REMOVAL OF PSORALENS FROM BLOOD PRODUCTS” (Cerus Corporation, priority 1995, dated 1996).

The subject of series [1] is platelets. Description: Hypotonic shock response (HSR) of platelets. Format: cell-based, human. The note with it: T = test unit (150 µM S-59, 3 Joules/cm^2 UVA, RD 8 hours on day 1). As to the method: (§1) For the evaluation of in vitro platelet function, platelet samples were withdrawn from both the control and test units before treatment and after treatment on days 2, 5, and 7. The following parameters were analyzed: pH, pO2, pCO2, bicarbonate concentration, platelet count, morphology, aggregation, platelet shape change, hypotonic shock response, lactate production, glucose consumption, ATP secretion, p-selectin expression, and microvesicle formation. Several of these assays, including pH, morphology score, platelet shape change, and hypotonic shock response, have been reported in the literature to correlate with in- vivo post-transfusion recovery and survival. The Student's paired t-test was used for statistical analysis.

Series [2] deals with platelets. The series can be described thus: ATP content / ATP secretion of platelets. Format: cell-based, human. The settings on record: T = test unit (150 µM S-59, 3 Joules/cm^2 UVA, RD 8 hours on day 1). As to the method: Samples were removed from the units after 24 hours and were analyzed for platelet count and pH. After 5 days, samples were taken and also analyzed for platelet count and pH, as well as ATP content and activation by GMP-140. Controls included a sample of PCD-treated PC without adsorbent (no-adsorbent control) and a sample of PC that was not treated. The results for each of the platelet function assays are present in Table G (the "*" In Table G indicates a contact time of three hours only). TABLE G
as §1

Series [3] has as its system platelets. Description: Microvesicle formation of platelets. Format: cell-based, human. The settings on record: T = test unit (150 µM S-59, 3 Joules/cm^2 UVA, RD 8 hours on day 1). The method, then: as §1
For series [4], the system named is platelets. The series can be described thus: Platelet aggregation (ADP and collagen, aggregometer). Format: cell-based, human. The note with it: for (%) Aggregation: T = test unit (150 µM S-59, 3 Joules/cm^2 UVA, RD 8 hours on day 1). The method, then:
To measure the effects of the present compounds and methods of decontamination on platelet function using these four indicators, four samples were prepared for each compound tested, two control samples and two containing compound. […] These were each transferred under sterile conditions to 50 ml centrifuge tubes, then aliquots of each unit were transferred into a second set of 50 ml sterile centrifuge tubes. […] The samples were pipetted gently up and down to mix. […] Samples were treated in one of two different sized bags, having either 3 ml or 8 ml capacity. […] For each compound tested, two control samples without compound were prepared by again removing aliquots of platelet concentrate (17 ml if using an 8 ml bag, 4 ml if using a 3 ml bag) from the same one of the first set of 50 ml centrifuge tubes from which the compound sample was drawn, and dividing into Medibags, as before. […] Then all experimental and control Medibags were placed on a platelet shaker for storage for 5 days.

The test system of another series is platelet concentrate. The series can be described thus: Maintenance of pH of platelet concentrate. Format: cell-based, human. The settings on record: T = test unit (150 µM S-59, 3 Joules/cm^2 UVA, RD 8 hours on day 1). The method, then: (§2) To measure the effects of the present compounds and methods of decontamination on platelet function using these four indicators, four samples were prepared for each compound tested, two control samples and two containing compound. […] These were each transferred under sterile conditions to 50 ml centrifuge tubes, then aliquots of each unit were transferred into a second set of 50 ml sterile centrifuge tubes. […] The samples were pipetted gently up and down to mix. […] Samples were treated in one of two different sized bags, having either 3 ml or 8 ml capacity. […] For each compound tested, two control samples without compound were prepared by again removing aliquots of platelet concentrate (17 ml if using an 8 ml bag, 4 ml if using a 3 ml bag) from the same one of the first set of 50 ml centrifuge tubes from which the compound sample was drawn, and dividing into Medibags, as before. […]

The test system of series [5] is platelets. Description: Platelet shape change. Format: cell-based, human. The settings on record: T = test unit (150 µM S-59, 3 Joules/cm^2 UVA, RD 8 hours on day 1). The method, then:
Platelets are able to regain their ability to change shape following transfer from the RD and incubation in a PL 2410 Plastic container (Baxter) in an equal volume of autologous plasma.
as §1

Series [6] concerns GMP-140 expression on platelets. The series can be described thus: GMP-140 (p-selectin) expression on platelets, CD62 antibody, flow cytometry. Format: cell-based, human. The settings on record: T = test unit (150 µM S-59, 3 Joules/cm^2 UVA, RD 8 hours on day 1). As to the method:
as §2
On the technique in general: A flow cytometer gives signals particle by particle.

Series [7] has as its system platelets suspended in 35% plasma/65% PAS III. Description: Partitioning and distribution of S-59 in platelet concentrate before and after UVA (3H-S-59, HPLC). The note with it: C0 = 50 µM (FIG. 25A). The source says:
[…] When designing a "capture" or "scrub" device for psoralen removal, an important consideration is the identification and quantification of the residual levels of low molecular weight photoproducts. Several properties of the platelet mixture (e.g., lipid content, platelet content, hemoglobin/RBC content) can affect the final partitioning of psoralen and the amount of each photoproduct that must be removed during the capture or scrub process.
Upon addition of S-59 to platelets, the S-59 rapidly partitions, establishing an equilibrium between S-59 in the plasma and S-59 within the platelets. […] In addition, higher percentages of S-59 will partition to the platelets if long incubation periods (e.g., greater than 60 minutes) occur between the addition of S-59 and illumination with UVA. The amount of S-59 which partitions to the platelets ultimately determines how much S-59 remains associated with platelets, how much is associated with plasma macromolecules, and how much remains as free photoproduct.
During the UVA illumination process, S-59 undergoes a photochemical reaction to form several low molecular weight photoproducts in addition to associating with macromolecules in both the platelet and the plasma fractions. […]
The S-59 which is not amenable to removal by the scrub/capture process can also be monitored using ^3H-labeled S-59. […]

Marks after values point to notes of the source that are not given here.

Regarding `Cc1oc2c(C)c3oc(=O)cc(C)c3cc2c1COCCN` [Compound 2, 4'-(4-amino-2-oxa)butyl-4,5',8-trimethylpsoralen], the “(%) HSR” value in the series with platelets [1] (Day 2) worked out at 52±5 %; in the series with platelets [1] (Day 5), 45±3%; in the series on platelets [1] (Day 7) it was 48±8%. For the same compound, the results for the ATP in the series with platelets [2] (Day 2), with platelets [2] (Day 5) and with platelets [2] (Day 7) were 1.0±0.1 Nmoles Per 10* Platelets, 0.7±0.2 Nmoles Per 10* Platelets and 0.6±0.2 Nmoles Per 10* Platelets, respectively. In addition, the figures for the “(%) Microvesicle Formation” value in the series on platelets [3] (Day 2), with platelets [3] (Day 5) and with platelets [3] (Day 7) were 0.9±0.2%, 0.8±0.2% and 1.7±1.7%, respectively. The “reduction in aggregation from the day 1 control” value in the series with platelets [4] (100 µM compound, 5 Joules/cm^2, 5 days storage (FIG. 21B)) was “approximately 8%”. In addition, the “(%) Aggregation” value is 88±4% in the series with platelets [4] (Day 2), 81±7% with platelets [4] (Day 5) and 81±4% in the series with platelets [4] (Day 7). Besides, the pH in the series with platelet concentrate (Day 2) is 6.94±0.05; with platelet concentrate (Day 5) it was 6.92±0.06; with platelet concentrate (Day 7), 6.91±0.05. Further, the “Platelet Shape Change” value with platelets [5] (Day 2) stood at 1.0±0.1; in the series with platelets [5] (Day 5), 0.9±0.1; in the series on platelets [5] (Day 7), 0.9±0.3. Moreover, the “(%) p-Selectin-Positive” value in series [6] (Day 2) came out at 49±5 %; in series [6] (Day 5), 58±5%; in series [6] (Day 7), 60±7%. Moreover, in series [7], the “time to S-59 equilibrium (uptake by platelets)” value was “approximately two”.
